# Key:
# KMS-11 = assay: Cell viability (MTS) assay, KMS-11; format: cell-based; settings: Homo sapiens; KMS-11, MTS, 72 hours, mean ± standard deviation
# Protocol: Human multiple myeloma cell lines 8226, H929, JJN3, KMH11, KMS11, KMS18, LP1, MM1S, OPM2 and U266 were grown in Iscove modified Dulbecco's medium (IMDM). Human leukemia cell lines K562, OCI-AML2 and U937 were cultured in RPMI-1640 medium. Primary peripheral blood mononuclear cells were isolated from multiple myeloma patients by Ficoll density gradient centrifugation and bone marrow aspirates were obtained from multiple myeloma patients at the Princess Margaret Cancer Centre of the University Health Network (UHN; Toronto, ON, Canada). Primary cells were cultured in IMDM. The collection and use of human tissue for this study was approved by the UHN institutional ethics review board. All cell culture media were obtained from the Ontario Cancer Institute Tissue Culture Media Facility (Toronto, ON, Canada) and were supplemented with 10% fetal calf serum, […] (Hyclone, Logan, Utah). All cells were grown in a humidified incubator at 37° C. with 5% CO2.
# Cellular viability was primarily assessed by 3-(4,5-dimethylthiazol-2-yl)-5-(3-carboxymethoxyphenyl)-2-(4-sulfophenyl)-2H-tetrazolium (MTS) assay according to the manufacturer's instructions (Promega; Madison, Wis.). Cells were first seeded at a density of 10,000 cells per well in tissue culture-treated 96-well plates. Two hours after seeding, cells were treated with compounds for 72 hours at concentrations as indicated. As a control, cells were treated with DMSO alone in every assay plate. Following treatment and the MTS assay, cell viability was independently confirmed by reading the optical density (O.D.) at 490 nm and by exclusion of trypan blue stain (Invitrogen; Burlington, ON, Canada). The viability of primary mononuclear cells was determined by staining with Annexin V.
# Table 8 summarizes the data of representative compounds of Formula I for cell viability and CT-L proteasome activity with OCI-AML-2 and KMS-11 cell lines.
# HL-60(TB) = assay: NCI screening panel, HL-60(TB) (Leukemia); format: cell-based, human
# Protocol: (§1) Representative compounds of Formula I were screened using the National Cancer Institute (NCI) screening panel, which consists of a panel of human tumor cell lines, representing leukemia, melanoma, and cancers of the lung, colon, ovary, breast, prostate and renal system.
# (§2) After 24 h, two plates of each cell line are fixed in situ with TCA, to represent a measurement of the cell population for each cell line at the time of drug addition (Tz). Experimental drugs are solubilised in dimethyl sulfoxide at 400-fold the desired final maximum test concentration and stored frozen prior to use. At the time of drug addition, an aliquot of frozen concentrate is thawed and diluted to twice the desired final maximum test concentration with complete medium containing 50 μg/mL gentamicin. Additional four, 10-fold or ½ log serial dilutions are made to provide a total of five drug concentrations plus control. Aliquots of 100 μl of these different drug dilutions are added to the appropriate microtiter wells already containing 100 μl of medium, resulting in the required final drug concentrations.
# (§3) Following drug addition, the plates are incubated for an additional 48 h at 37° C., 5% CO2, 95% air, and 100% relative humidity. For adherent cells, the assay is terminated by the addition of cold TCA (trichloroacetic acid). Cells are fixed in situ by the gentle addition of 50 μl of cold 50% (w/v) TCA (final concentration, 10% TCA) and incubated for 60 minutes at 4° C. The supernatant is discarded, and the plates are washed five times with tap water and air dried. Sulforhodamine B (SRB) solution (100 μl) at 0.4% (w/v) in 1% acetic acid is added to each well, and plates are incubated for 10 minutes at room temperature. After staining, unbound dye is removed by washing five times with 1% acetic acid and the plates are air dried. Bound stain is subsequently solubilised with 10 mM trizma base, and the absorbance is read on an automated plate reader at a wavelength of 515 nm. For suspension cells, the methodology is the same except that the assay is terminated by fixing settled cells at the bottom of the wells by gently adding 50 μl of 80% TCA (final concentration, 16% TCA). Using the seven absorbance measurements [time zero, (Tz), control growth, (C), and test growth in the presence of drug at the five concentration levels (Ti)], the percentage growth is calculated at each of the drug concentrations levels. Percentage growth inhibition is calculated as: [(Ti−Tz)/(C−Tz)]×100 for concentrations for which Ti>/=Tz and [(Ti−Tz)/Tz]×100 for concentrations for which Ti<Tz.
# (§4) Three dose response parameters are calculated for each experimental agent. Growth inhibition of 50% (GI50) is calculated from [(Ti−Tz)/(C−Tz)]×100=50, which is the drug concentration resulting in a 50% reduction in the net protein increase (as measured by SRB staining) in control cells during the drug incubation. The drug concentration resulting in total growth inhibition (TGI) is calculated from Ti=Tz. The LC50 (concentration of drug resulting in a 50% reduction in the measured protein at the end of the drug treatment as compared to that at the beginning) indicating a net loss of cells following treatment is calculated from [(Ti−Tz)/Tz]×100=−50. Values are calculated for each of these three parameters if the level of activity is reached. However, if the effect is not reached or is exceeded, the value for that parameter is expressed as greater or less than the maximum or minimum concentration tested.
# K-562 = assay: NCI screening panel, K-562 (Leukemia); format: cell-based, human
# Protocol: as §1, §2, §3, §4
# HOP-62 = assay: NCI screening panel, HOP-62 (Non-Small Cell Lung Cancer); format: cell-based, human
# Protocol: as §1, §2, §3, §4
# NCI-H322M = assay: NCI screening panel, NCI-H322M (Non-Small Cell Lung Cancer); format: cell-based, human
# Protocol: as §1, §2, §3, §4
# NCI-H522 = assay: NCI screening panel, NCI-H522 (Non-Small Cell Lung Cancer); format: cell-based, human
# Protocol: as §1, §2, §3, §4
# HCT-116 = assay: NCI screening panel, HCT-116 (Colon Cancer); format: cell-based, human
# Protocol: as §1, §2, §3, §4
# SW-620 = assay: NCI screening panel, SW-620 (Colon Cancer); format: cell-based, human
# Protocol: as §1, §2, §3, §4
# MALME-3M = assay: NCI screening panel, MALME-3M (Melanoma); format: cell-based, human
# Protocol: as §1, §2, §3, §4
# IGROV1 = assay: NCI screening panel, IGROV1 (Ovarian Cancer); format: cell-based, human
# Protocol: as §1, §2, §3, §4
# T-47D = assay: NCI screening panel, T-47D (Breast Cancer); format: cell-based, human
# Protocol: as §1, §2, §3, §4
SMILES,IC50 (KMS-11),Log10GI50 (HL-60(TB)),Log10LC50 (HL-60(TB)),Log10TGI50 (HL-60(TB)),Log10GI50 (K-562),Log10TGI50 (K-562),Log10GI50 (HOP-62),Log10LC50 (HOP-62),Log10TGI50 (HOP-62),Log10GI50 (NCI-H322M),Log10LC50 (NCI-H322M),Log10TGI50 (NCI-H322M),Log10GI50 (NCI-H522),Log10LC50 (NCI-H522),Log10TGI50 (NCI-H522),Log10GI50 (HCT-116),Log10LC50 (HCT-116),Log10TGI50 (HCT-116),Log10GI50 (SW-620),Log10LC50 (SW-620),other results
"CC(C)C[C@H](NC(=O)[C@H](Cc1ccccc1)NC(=O)[C@H](COC(F)F)NC(=O)[C@H](COC(F)F)NC(=O)CN1CCOCC1)C(=O)[C@@]1(C)CO1 [Example 11, (2S)-2-[[(2S)-3-(difluoromethoxy)-2-[[(2S)-3-(difluoromethoxy)-2-[(2-morpholinoacetyl)-amino]propanoyl]amino]propanoyl]amino]-N-[(1S)-3-methyl-1-[(2R)-2-methyloxirane-2-carbonyl]butyl]-3-phenyl-propanamide]",24.3 ± 0.568 nM,−7.46,>−4.00,−6.42,−7.36,>−4.00,−7.56,>−4.00,−4.94,−6.85,−4.06,−6.03,−7.72,>−4.00,−7.15,<−8.00,−4.54,−7.06,−7.63,>−4.00,Log10LC50 (K-562): >−4.00; Log10TGI50 (SW-620): −5.97; Log10GI50 (MALME-3M): −7.14; Log10LC50 (MALME-3M): >−4.00; Log10TGI50 (MALME-3M): −6.30; Log10GI50 (IGROV1): −7.38; Log10LC50 (IGROV1): >−4.00; Log10TGI50 (IGROV1): −4.36; Log10GI50 (T-47D): −7.71; Log10TGI50 (T-47D): >−4.00
"CC(C)C[C@H](NC(=O)[C@H](COC(F)F)NC(=O)[C@H](COC(F)F)NC(=O)[C@H](COC(F)F)NC(=O)CN1CCOCC1)C(=O)[C@@]1(C)CO1 [Example 17, (2S)-3-(difluoromethoxy)-N-[(1S)-1-(difluoromethoxymethyl)-2-[[(1S)-1-(difluoro-methoxymethyl)-2-[[(1S)-3-methyl-1-[(2R)-2-methyloxirane-2-carbonyl]butyl]amino]-2-oxo-ethyl]amino]-2-oxo-ethyl]-2-[(2-mor-pholinoacetyl)amino]-propanamide]",166 ± 13.4 nM,−6.70,>−4.00,−5.87,−6.77,>−4.00,−6.82,>−4.00,>−4.00,−6.58,−4.92,−5.73,−7.40,−5.25,−6.64,−7.45,−4.50,−6.60,−7.08,>−4.00,Log10TGI50 (SW-620): −4.95; Log10GI50 (MALME-3M): −6.76; Log10LC50 (MALME-3M): >−4.00; Log10TGI50 (MALME-3M): −6.09; Log10GI50 (IGROV1): −6.87; Log10LC50 (IGROV1): >−4.00; Log10TGI50 (IGROV1): −5.82; Log10GI50 (T-47D): −7.10; Log10LC50 (T-47D): >−4.00; Log10TGI50 (T-47D): −6.33

# — US20150218212A1, “FLUORINATED EPOXYKETONE-BASED TETRAPEPTIDE COMPOUNDS AND USES THEREOF AS PROTEASOME INHIBITORS” (FLUORINOV PHARMA INC., priority 2012, published 2015)
